The results in this text go back to PubChem BioAssay (NCI).

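All cell lines were grown in 96-well plates and treated with compound for 48 hours. GI50: concentration for 50% inhibition of growth. At the TGI there is no net growth.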

Among the test systems are HOP-92 NSCLC; HCT-116 colon; T-47D breast; MDA-MB-231 breast; MALME-3M melanoma; SF-295 CNS; IGROV1 ovarian; LOX IMVI melanoma; UACC-62 melanoma; SF-539 CNS.
What all share (test): NCI anticancer screen, dose series, 48 h

With `COc1ccc(C(=O)COc2cccc(/C=C3\CSc4ccc(Cl)cc4C3=O)c2)cc1`, the GI50 in the assay with HOP-92 NSCLC is 1.28 µM; in the assay with HCT-116 colon, 1.94 µM; in the assay with T-47D breast, 5.4 µM; in the assay with MDA-MB-231 breast it was 14.2 µM; in the assay with MALME-3M melanoma, 11.6 µM; in the assay with SF-295 CNS, 11.3 µM. Besides, the GI50 in the assay on LOX IMVI melanoma was 1.79 µM; with UACC-62 melanoma, 6.23 µM; in the assay with SF-539 CNS, 16.2 µM. Further, the TGI was determined as 19.8 µM in the assay on HOP-92 NSCLC; 4.3 µM in the assay with HCT-116 colon; 28.9 µM with T-47D breast; 64.3 µM with MDA-MB-231 breast; 32 µM with MALME-3M melanoma; 28.7 µM in the assay on SF-295 CNS. The TGI with IGROV1 ovarian was 11.6 µM; with LOX IMVI melanoma, 3.48 µM; in the assay with UACC-62 melanoma, 21 µM; in the assay on SF-539 CNS, 30.7 µM.
With `CC(C)(C)[Si](C)(C)OCC1C=CC(n2cnc3c(N)ncnc32)O1` (centres undefined), the TGI with HOP-92 NSCLC is 38.1 µM; in the assay with HCT-116 colon it was 50.6 µM; with T-47D breast, above 100 µM; with MDA-MB-231 breast, above 73.6 µM; in the assay on MALME-3M melanoma, above 100 µM; with SF-295 CNS, above 100 µM. Besides, the TGI with IGROV1 ovarian was above 100 µM; in the assay with LOX IMVI melanoma, above 64 µM; with UACC-62 melanoma, above 69.5 µM; in the assay with SF-539 CNS, above 81.5 µM.
For `C#Cc1cccc(Oc2ccc(NC(=O)CCl)cc2)c1`, the GI50 with HOP-92 NSCLC was above 82.5 µM; in the assay with HCT-116 colon, 30.9 µM; in the assay on T-47D breast, above 82.5 µM; in the assay on MDA-MB-231 breast, above 82.5 µM; in the assay with MALME-3M melanoma it was 37.3 µM; in the assay with SF-295 CNS, above 82.5 µM. Further, the GI50 was 5.85 µM in the assay on IGROV1 ovarian, 18.1 µM in the assay on LOX IMVI melanoma, above 82.5 µM with UACC-62 melanoma and above 82.5 µM in the assay on SF-539 CNS. For the same compound, the TGI in the assay on HOP-92 NSCLC, in the assay with HCT-116 colon, in the assay on T-47D breast, in the assay with MDA-MB-231 breast, in the assay on MALME-3M melanoma and with SF-295 CNS was above 82.5 µM throughout. For the same compound, the TGI with IGROV1 ovarian was 42.4 µM; with LOX IMVI melanoma, above 82.5 µM; in the assay with UACC-62 melanoma, above 82.5 µM; with SF-539 CNS, above 82.5 µM.
As to `O=C(O)c1cc(Cc2ccc(O)c(C(=O)O)c2)ccc1O` (tested in a mixture with another compound), the GI50 with HOP-92 NSCLC is 1.21 µM; in the assay with HCT-116 colon it was 3.67 µM; in the assay with T-47D breast, 2.67 µM; in the assay on MDA-MB-231 breast, 3.25 µM; in the assay with MALME-3M melanoma, 8.55 µM; with SF-295 CNS it was 0.592 µM. Moreover, the GI50 in the assay with IGROV1 ovarian was 4.72 µM; with LOX IMVI melanoma, 2.99 µM; in the assay on UACC-62 melanoma, 4.73 µM; with SF-539 CNS it was 11.4 µM. Also, the TGI amounted to 6.3 µM in the assay with HOP-92 NSCLC; 14.2 µM in the assay on HCT-116 colon; 13.2 µM with T-47D breast; 12.2 µM with MDA-MB-231 breast; 23.9 µM with MALME-3M melanoma; 2.9 µM in the assay with SF-295 CNS. Also, the TGI in the assay on IGROV1 ovarian was found to be 20.6 µM; with LOX IMVI melanoma it was 15.7 µM; with UACC-62 melanoma, 19.9 µM; with SF-539 CNS, 26.6 µM.
Consider `COc1ccc(-c2nnc(N3CCN(C(=O)CN4CCN(c5ccc(Cl)cc5)CC4)CC3)nc2-c2ccc(OC)cc2)cc1`, for which the GI50 with HOP-92 NSCLC is 16.2 µM; with HCT-116 colon it was 5.99 µM; in the assay on T-47D breast it was 4.51 µM; in the assay on MDA-MB-231 breast, 45.9 µM; in the assay on MALME-3M melanoma, 21.5 µM; with SF-295 CNS, 49.4 µM. The GI50 in the assay on IGROV1 ovarian is 29.4 µM; in the assay with LOX IMVI melanoma, 15.6 µM; in the assay on UACC-62 melanoma, 31.5 µM; in the assay on SF-539 CNS, 15.1 µM. In addition, the TGI is 39.1 µM with HOP-92 NSCLC; above 100 µM in the assay with HCT-116 colon; 74.8 µM in the assay with T-47D breast; above 100 µM in the assay with MDA-MB-231 breast; above 100 µM in the assay on MALME-3M melanoma; above 100 µM with SF-295 CNS. The TGI is above 100 µM with IGROV1 ovarian, above 100 µM with LOX IMVI melanoma, above 100 µM in the assay on UACC-62 melanoma and 74.8 µM in the assay with SF-539 CNS.
In the case of `C[C@]12C3CC[C@@]4(CO)C[C@]3(CCC1[C@](C)(C(=O)O)CC[C@@H]2O)CC4=O` (some centres undefined), the GI50 in the assay with HOP-92 NSCLC, in the assay on HCT-116 colon, in the assay on T-47D breast, with MDA-MB-231 breast, in the assay with MALME-3M melanoma and with SF-295 CNS was above 100 µM throughout. Further, the GI50 with IGROV1 ovarian, in the assay with LOX IMVI melanoma, in the assay on UACC-62 melanoma and in the assay on SF-539 CNS was above 100 µM in each case. For the same compound, the TGI with HOP-92 NSCLC, in the assay on HCT-116 colon, with T-47D breast, with MDA-MB-231 breast, in the assay with MALME-3M melanoma and with SF-295 CNS was above 100 µM throughout. The TGI in the assay with IGROV1 ovarian, in the assay with LOX IMVI melanoma, with UACC-62 melanoma and in the assay with SF-539 CNS was above 100 µM throughout.
Regarding `C1=C(c2ccccc2)SC=C(c2ccccc2)S1`, the TGI in the assay with HOP-92 NSCLC, with HCT-116 colon, in the assay on T-47D breast, in the assay on MDA-MB-231 breast, with MALME-3M melanoma and in the assay on SF-295 CNS was above 100 µM throughout. The TGI in the assay with IGROV1 ovarian, with LOX IMVI melanoma, with UACC-62 melanoma and in the assay on SF-539 CNS was above 100 µM each time.
As to `COc1cc(-c2cc(/C=C3\C(=O)Nc4ccccc43)[nH]n2)cc(OC)c1OC`, the GI50 in the assay with HOP-92 NSCLC is 1.97 µM; in the assay with HCT-116 colon, 2.74 µM; with T-47D breast, 1.74 µM; in the assay on MDA-MB-231 breast, 4.07 µM; in the assay with MALME-3M melanoma it was 2.28 µM; in the assay with SF-295 CNS, 2.84 µM. For the same compound, the GI50 in the assay on IGROV1 ovarian is 3.14 µM; in the assay on LOX IMVI melanoma, 2.43 µM; with UACC-62 melanoma it was 1.63 µM; in the assay with SF-539 CNS it was 3.49 µM. The TGI in the assay with HOP-92 NSCLC was found to be 9.12 µM; in the assay on HCT-116 colon, 11.1 µM; in the assay with T-47D breast, 6.99 µM; with MDA-MB-231 breast, 27.7 µM; in the assay with MALME-3M melanoma, 7.47 µM; with SF-295 CNS, 11.6 µM. Moreover, the TGI in the assay with IGROV1 ovarian was found to be 14.8 µM; in the assay with LOX IMVI melanoma, 7.94 µM; in the assay on UACC-62 melanoma, 4.22 µM; in the assay with SF-539 CNS, 16.3 µM.
